From the kinase profiling compilation of Christmann-Franck et al. (2016)

Columns and labels:
Experiment in all cases: radiometric filter-binding kinase assay, Kinaseprofiler
[1] = test system: EEF2K (human), O00418 [H23R]; conditions: ATP 15 µM
[2] = molecular target: PRKAA1 PRKAB1 PRKAG1 (human) (UniProt P54619+Q13131+Q9Y478); conditions: ATP 45 µM
[3] = molecular target: CDC42BPA (human) (UniProt Q5VT25); conditions: ATP 45 µM
[4] = molecular target: CSNK1G1 (human) (UniProt Q9HCP0); conditions: ATP 15 µM
[5] = molecular target: RPS6KA4 KD1 KD2 (human) (UniProt O75676); conditions: ATP 45 µM
Chain of RPS6KA4 KD1 KD2 (human) (O75676 whole entry, looked up): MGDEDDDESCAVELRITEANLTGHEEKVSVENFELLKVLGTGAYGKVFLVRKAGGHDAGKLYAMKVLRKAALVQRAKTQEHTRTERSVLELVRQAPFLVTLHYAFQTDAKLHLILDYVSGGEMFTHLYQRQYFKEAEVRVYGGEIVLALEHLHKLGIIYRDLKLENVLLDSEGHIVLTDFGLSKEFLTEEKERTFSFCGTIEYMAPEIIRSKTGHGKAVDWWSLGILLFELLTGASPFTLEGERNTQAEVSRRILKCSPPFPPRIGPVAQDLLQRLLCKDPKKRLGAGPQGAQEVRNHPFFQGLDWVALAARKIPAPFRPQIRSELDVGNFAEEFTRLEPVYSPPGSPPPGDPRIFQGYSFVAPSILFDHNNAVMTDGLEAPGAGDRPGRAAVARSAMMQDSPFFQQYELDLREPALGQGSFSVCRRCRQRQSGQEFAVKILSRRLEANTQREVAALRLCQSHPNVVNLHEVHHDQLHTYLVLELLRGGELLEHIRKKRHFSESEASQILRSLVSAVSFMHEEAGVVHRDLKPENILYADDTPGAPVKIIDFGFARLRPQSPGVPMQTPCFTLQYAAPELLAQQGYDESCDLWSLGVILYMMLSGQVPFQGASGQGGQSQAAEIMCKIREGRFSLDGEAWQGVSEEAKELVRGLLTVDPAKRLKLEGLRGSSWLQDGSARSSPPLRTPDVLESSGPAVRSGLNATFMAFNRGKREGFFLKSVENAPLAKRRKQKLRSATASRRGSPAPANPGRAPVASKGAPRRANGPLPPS

[6] = molecular target: SGK3 (human) (UniProt Q96BR1); conditions: ATP 155 µM
[7] = molecular target: GCK (human) (UniProt Q12851); conditions: ATP 200 µM
[8] = molecular target: STK3 (human) (UniProt Q13188); conditions: ATP 155 µM
[9] = molecular target: TNK2 (human) (UniProt Q07912); conditions: ATP 70 µM
[10] = molecular target: MAPK12 (human) (UniProt P53778); conditions: ATP 15 µM
Chain of MAPK12 (human) (P53778 whole entry, looked up): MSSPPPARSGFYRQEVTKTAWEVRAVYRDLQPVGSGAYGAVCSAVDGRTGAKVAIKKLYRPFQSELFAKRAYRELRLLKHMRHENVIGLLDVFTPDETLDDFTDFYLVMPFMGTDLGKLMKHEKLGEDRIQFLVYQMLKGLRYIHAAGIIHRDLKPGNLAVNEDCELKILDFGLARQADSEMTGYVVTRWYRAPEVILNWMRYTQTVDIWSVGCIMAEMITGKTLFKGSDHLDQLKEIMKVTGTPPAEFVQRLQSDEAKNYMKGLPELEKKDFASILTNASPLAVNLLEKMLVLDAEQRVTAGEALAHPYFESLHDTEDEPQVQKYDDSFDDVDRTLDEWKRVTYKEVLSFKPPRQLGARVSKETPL

[11] = molecular target: FLT3 (human) (UniProt P36888); conditions: ATP 200 µM
Chain of FLT3 (human) (P36888 whole entry, looked up): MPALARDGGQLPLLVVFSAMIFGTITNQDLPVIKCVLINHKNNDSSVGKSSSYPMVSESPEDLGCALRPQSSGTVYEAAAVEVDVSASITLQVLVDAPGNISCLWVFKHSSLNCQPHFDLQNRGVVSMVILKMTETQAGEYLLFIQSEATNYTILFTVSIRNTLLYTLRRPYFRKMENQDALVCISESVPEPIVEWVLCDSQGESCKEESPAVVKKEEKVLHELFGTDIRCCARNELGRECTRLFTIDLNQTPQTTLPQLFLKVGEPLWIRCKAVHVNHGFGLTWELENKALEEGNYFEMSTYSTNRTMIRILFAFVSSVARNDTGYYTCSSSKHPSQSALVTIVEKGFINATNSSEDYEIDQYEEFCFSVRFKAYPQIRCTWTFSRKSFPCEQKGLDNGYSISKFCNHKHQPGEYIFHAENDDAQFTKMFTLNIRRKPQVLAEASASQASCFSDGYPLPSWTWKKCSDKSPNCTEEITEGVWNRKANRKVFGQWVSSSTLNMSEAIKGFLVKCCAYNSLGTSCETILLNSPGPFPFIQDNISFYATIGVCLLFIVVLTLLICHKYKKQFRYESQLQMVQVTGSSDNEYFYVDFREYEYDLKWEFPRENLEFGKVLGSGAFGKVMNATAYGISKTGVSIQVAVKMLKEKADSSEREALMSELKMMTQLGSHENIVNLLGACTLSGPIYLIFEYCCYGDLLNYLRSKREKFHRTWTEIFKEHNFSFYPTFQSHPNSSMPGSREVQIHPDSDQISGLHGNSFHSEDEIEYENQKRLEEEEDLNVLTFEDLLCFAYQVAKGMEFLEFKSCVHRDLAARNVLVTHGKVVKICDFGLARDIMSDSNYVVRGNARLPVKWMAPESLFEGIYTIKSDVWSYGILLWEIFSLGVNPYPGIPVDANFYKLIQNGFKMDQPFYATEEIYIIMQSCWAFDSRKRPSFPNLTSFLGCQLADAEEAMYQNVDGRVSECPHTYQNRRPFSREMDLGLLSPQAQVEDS

[12] = molecular target: DMPK (human) (UniProt Q09013); conditions: ATP 10 µM
[13] = molecular target: GRK5 (human) (UniProt P34947); conditions: ATP 15 µM
[14] = molecular target: RPS6KA6 KD1 KD2 (human) (UniProt Q9UK32); conditions: ATP 45 µM
[15] = molecular target: FLT1 (human) (UniProt P17948); conditions: ATP 200 µM
[16] = molecular target: IGF1R (human) (UniProt P08069)
Chain of IGF1R (human) (P08069 whole entry, looked up): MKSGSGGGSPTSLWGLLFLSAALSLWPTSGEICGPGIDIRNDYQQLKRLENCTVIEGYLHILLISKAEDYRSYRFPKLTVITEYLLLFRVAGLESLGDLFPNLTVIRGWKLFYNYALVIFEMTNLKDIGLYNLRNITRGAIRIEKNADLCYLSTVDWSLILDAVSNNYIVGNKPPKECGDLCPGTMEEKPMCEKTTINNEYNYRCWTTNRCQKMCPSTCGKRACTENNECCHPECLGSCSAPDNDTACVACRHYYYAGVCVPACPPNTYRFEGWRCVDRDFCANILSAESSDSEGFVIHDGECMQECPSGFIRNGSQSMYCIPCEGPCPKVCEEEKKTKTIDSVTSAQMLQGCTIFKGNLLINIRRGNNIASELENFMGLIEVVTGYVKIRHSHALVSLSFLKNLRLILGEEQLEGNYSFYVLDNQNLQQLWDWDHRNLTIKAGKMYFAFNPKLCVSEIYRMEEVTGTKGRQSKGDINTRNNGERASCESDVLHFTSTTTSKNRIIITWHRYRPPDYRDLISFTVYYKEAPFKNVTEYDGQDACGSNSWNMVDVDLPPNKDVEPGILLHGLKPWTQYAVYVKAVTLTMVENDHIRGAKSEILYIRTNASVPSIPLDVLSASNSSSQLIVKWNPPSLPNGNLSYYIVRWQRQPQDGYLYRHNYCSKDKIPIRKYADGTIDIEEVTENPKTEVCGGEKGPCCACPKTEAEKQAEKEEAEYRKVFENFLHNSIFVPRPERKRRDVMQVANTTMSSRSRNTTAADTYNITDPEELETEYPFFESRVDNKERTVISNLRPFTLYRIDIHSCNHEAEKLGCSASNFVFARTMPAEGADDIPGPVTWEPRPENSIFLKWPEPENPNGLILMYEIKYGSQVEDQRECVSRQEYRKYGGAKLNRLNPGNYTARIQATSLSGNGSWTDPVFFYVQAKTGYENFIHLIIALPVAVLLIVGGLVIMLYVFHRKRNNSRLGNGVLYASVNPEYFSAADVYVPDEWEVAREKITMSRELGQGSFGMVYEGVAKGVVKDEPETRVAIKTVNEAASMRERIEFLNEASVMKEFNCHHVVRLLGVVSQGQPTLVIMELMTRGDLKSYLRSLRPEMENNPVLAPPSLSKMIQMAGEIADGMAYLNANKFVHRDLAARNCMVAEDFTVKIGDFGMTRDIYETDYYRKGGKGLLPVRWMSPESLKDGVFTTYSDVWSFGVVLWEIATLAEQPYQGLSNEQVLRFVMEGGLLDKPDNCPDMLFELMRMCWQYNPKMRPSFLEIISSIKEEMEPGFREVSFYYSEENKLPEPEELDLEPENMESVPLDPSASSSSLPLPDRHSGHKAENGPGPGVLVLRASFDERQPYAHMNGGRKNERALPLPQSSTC

[17] = molecular target: ALK (human) (UniProt Q9UM73); conditions: ATP 200 µM
[18] = molecular target: CAMK2G (human) (UniProt Q13555); conditions: ATP 10 µM
[19] = molecular target: EPHB4 (human) (UniProt P54760); conditions: ATP 10 µM
[20] = molecular target: CAMK1 (human) (UniProt Q14012); conditions: ATP 200 µM
Chain of CAMK1 (human) (Q14012 whole entry, looked up): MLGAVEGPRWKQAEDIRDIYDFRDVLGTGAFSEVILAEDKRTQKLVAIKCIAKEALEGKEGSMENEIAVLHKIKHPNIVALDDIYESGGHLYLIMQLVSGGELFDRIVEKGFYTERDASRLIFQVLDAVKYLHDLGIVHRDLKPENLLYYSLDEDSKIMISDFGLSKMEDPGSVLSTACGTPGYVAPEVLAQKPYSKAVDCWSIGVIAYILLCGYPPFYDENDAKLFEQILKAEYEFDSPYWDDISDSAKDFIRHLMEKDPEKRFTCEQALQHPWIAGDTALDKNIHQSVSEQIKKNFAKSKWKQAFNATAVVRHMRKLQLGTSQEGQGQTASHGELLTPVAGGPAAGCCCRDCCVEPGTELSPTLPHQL

[21] = molecular target: WNK2 (human) (UniProt Q9Y3S1); conditions: ATP 200 µM
[22] = molecular target: NTRK2 (human) (UniProt Q16620); conditions: ATP 90 µM
[23] = molecular target: JAK2 JH1 catalytic (human) (UniProt O60674); conditions: ATP 45 µM
[24] = molecular target: MUSK (human) (UniProt O15146); conditions: ATP 155 µM
[25] = molecular target: EPHA1 (human) (UniProt P21709); conditions: ATP 45 µM
[26] = molecular target: MAPK14 (human) (UniProt Q16539); conditions: ATP 90 µM
[27] = molecular target: CSNK1G2 (human) (UniProt P78368); conditions: ATP 10 µM
Chain of CSNK1G2 (human) (P78368 whole entry, looked up): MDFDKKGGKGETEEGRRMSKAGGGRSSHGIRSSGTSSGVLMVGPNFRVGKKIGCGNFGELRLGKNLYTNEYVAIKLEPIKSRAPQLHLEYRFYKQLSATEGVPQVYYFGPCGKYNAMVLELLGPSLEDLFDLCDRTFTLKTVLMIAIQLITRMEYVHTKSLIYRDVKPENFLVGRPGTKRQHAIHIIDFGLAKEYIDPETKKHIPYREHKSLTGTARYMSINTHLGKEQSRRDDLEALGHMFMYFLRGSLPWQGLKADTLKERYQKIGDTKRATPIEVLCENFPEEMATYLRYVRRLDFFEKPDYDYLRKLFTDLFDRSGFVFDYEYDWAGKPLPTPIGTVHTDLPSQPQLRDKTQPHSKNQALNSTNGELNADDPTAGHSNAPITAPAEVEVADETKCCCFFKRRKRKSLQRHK

[28] = molecular target: SRPK2 (human) (UniProt P78362); conditions: ATP 10 µM
[29] = molecular target: CDK1 CCNB1 (human) (UniProt P06493+P14635); conditions: ATP 45 µM
[30] = molecular target: PRKAA2 PRKAB1 PRKAG1 (human) (UniProt P54619+P54646+Q9Y478); conditions: ATP 45 µM
[31] = test system: CSNK1D (rat); conditions: accession and sequence are those of the human protein
[32] = molecular target: BTK (human) (UniProt Q06187); conditions: ATP 200 µM

Chain of EEF2K (human), O00418 [H23R] (O00418 whole entry H23R, looked up): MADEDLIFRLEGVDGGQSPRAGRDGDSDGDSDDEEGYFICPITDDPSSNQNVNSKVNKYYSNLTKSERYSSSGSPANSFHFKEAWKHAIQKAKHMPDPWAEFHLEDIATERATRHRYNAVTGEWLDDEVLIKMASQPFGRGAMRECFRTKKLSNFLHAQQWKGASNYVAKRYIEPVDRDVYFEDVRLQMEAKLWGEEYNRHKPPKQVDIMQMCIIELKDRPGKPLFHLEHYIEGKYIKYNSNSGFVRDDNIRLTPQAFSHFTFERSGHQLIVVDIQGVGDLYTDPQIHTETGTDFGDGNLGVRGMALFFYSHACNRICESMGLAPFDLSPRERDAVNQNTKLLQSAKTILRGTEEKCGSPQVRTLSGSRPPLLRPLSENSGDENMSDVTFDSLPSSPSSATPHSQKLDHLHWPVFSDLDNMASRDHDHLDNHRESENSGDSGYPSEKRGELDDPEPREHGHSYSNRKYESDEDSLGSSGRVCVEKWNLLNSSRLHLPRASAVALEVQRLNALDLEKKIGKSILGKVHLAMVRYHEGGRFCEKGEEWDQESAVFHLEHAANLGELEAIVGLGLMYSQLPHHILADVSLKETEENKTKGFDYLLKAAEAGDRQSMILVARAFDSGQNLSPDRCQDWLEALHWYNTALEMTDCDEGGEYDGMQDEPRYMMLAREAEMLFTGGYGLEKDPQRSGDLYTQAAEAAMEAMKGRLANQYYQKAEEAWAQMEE

O=C1Nc2ccccc2/C1=C1\Nc2ccccc2\C1=N/O
residual activity ([1]; compound 1.0 µM): 109%
residual activity ([1]; compound 10.0 µM): 93%
residual activity ([2]; compound 1.0 µM): 2%
residual activity ([2]; compound 10.0 µM): 0%
residual activity ([3]; compound 1.0 µM): 142%
residual activity ([3]; compound 10.0 µM): 135%
residual activity ([4]; compound 1.0 µM): 57%
residual activity ([4]; compound 10.0 µM): 19%
residual activity ([5]; compound 1.0 µM): 32%
residual activity ([5]; compound 10.0 µM): 4%
residual activity ([6]; compound 1.0 µM): 89%
residual activity ([6]; compound 10.0 µM): 56%
residual activity ([7]; compound 1.0 µM): 13%
residual activity ([7]; compound 10.0 µM): 1%
residual activity ([8]; compound 1.0 µM): 6%
residual activity ([8]; compound 10.0 µM): 0%
residual activity ([9]; compound 1.0 µM): 34%
residual activity ([9]; compound 10.0 µM): 4%
residual activity ([10]; compound 1.0 µM): 95%
residual activity ([10]; compound 10.0 µM): 84%
residual activity ([11]; compound 1.0 µM): 1%
residual activity ([11]; compound 10.0 µM): 0%
residual activity ([12]; compound 1.0 µM): 109%
residual activity ([12]; compound 10.0 µM): 83%
residual activity ([13]; compound 1.0 µM): 92%
residual activity ([13]; compound 10.0 µM): 58%
residual activity ([14]; compound 1.0 µM): 20%
residual activity ([14]; compound 10.0 µM): 12%
residual activity ([15]; compound 1.0 µM): 1%
residual activity ([15]; compound 10.0 µM): 0%
residual activity ([16]; compound 1.0 µM, ATP 45 µM): 40%
residual activity ([16]; compound 1.0 µM, ATP 200 µM): 37%
residual activity ([16]; compound 10.0 µM, ATP 45 µM): 20%
residual activity ([16]; compound 10.0 µM, ATP 200 µM): 26%
residual activity ([17]; compound 1.0 µM): 52%
residual activity ([17]; compound 10.0 µM): 18%
residual activity ([18]; compound 1.0 µM): 12%
residual activity ([18]; compound 10.0 µM): 1%
residual activity ([19]; compound 1.0 µM): 67%
residual activity ([19]; compound 10.0 µM): 13%
residual activity ([20]; compound 1.0 µM): 72%
residual activity ([20]; compound 10.0 µM): 21%
residual activity ([21]; compound 1.0 µM): 90%
residual activity ([21]; compound 10.0 µM): 55%
residual activity ([22]; compound 1.0 µM): 0%
residual activity ([22]; compound 10.0 µM): 0%
residual activity ([23]; compound 1.0 µM): 92%
residual activity ([23]; compound 10.0 µM): 11%
residual activity ([24]; compound 1.0 µM): 58%
residual activity ([24]; compound 10.0 µM): 5%
residual activity ([25]; compound 1.0 µM): 55%
residual activity ([25]; compound 10.0 µM): 61%
residual activity ([26]; compound 1.0 µM): 94%
residual activity ([26]; compound 10.0 µM): 78%
residual activity ([27]; compound 1.0 µM): 64%
residual activity ([27]; compound 10.0 µM): 20%
residual activity ([28]; compound 1.0 µM): 96%
residual activity ([28]; compound 10.0 µM): 67%
residual activity ([29]; compound 1.0 µM): 35%
residual activity ([29]; compound 10.0 µM): 19%
residual activity ([30]; compound 1.0 µM): 1%
residual activity ([30]; compound 10.0 µM): 3%
residual activity ([31]; compound 1.0 µM): 14%
residual activity ([31]; compound 10.0 µM): 4%
residual activity ([32]; compound 1.0 µM): 31%
residual activity ([32]; compound 10.0 µM): 4%
